Where two headings read alike, the source gives them in different places.
Tests used:
KatG(III) = molecular target: KatG(III); parameters: method as in PMID 17309235; details: pH 7.2, 25.0°C, cited from earlier work
Mt-trHbN(II) [1] = molecular target: T1, Mt-trHbN(II) (Mycobacterium tuberculosis, UniProt P9WN25); test: Isoniazid binding to Mt-trHbN(II), stopped-flow, anaerobic
T1 construct: made in house

plasma protein = test system: plasma protein; parameters: method as in ref 89 = [89]; 89 Medical Economics (2004) Drug Information for the Health Care Professional, Thomson PDR, Montvale, p. 1689.; details: cited from earlier work
Mt-trHbN(II) [2] = molecular target: T1, Mt-trHbN(II); test: O2 binding to Mt-trHbN(II) in the absence and presence of isoniazid (tonometer method); details: [isoniazid] = 1.0×10^−2 M
Protocol: The value of B was determined by the tonometer method adding small volumes of air to the Mt-trHbN(II) solution (1.3×10^−6 M), in the absence and presence of isoniazid ( = 1.0×10^−2 M; B ^obs).

Mt-trHbN(III) [3] = molecular target: T2, Mt-trHbN(III) (Mycobacterium tuberculosis, UniProt P9WN25); test: biochemical; assay type: binding
T2 construct: made in house

Mt-trHbN(III) [4] = molecular target: T2, Mt-trHbN(III); test: Peroxynitrite isomerization by Mt-trHbN(III) in the absence and presence of isoniazid; assay type: biochemical
Protocol: Rapid-mixing experiments were performed using either the SX18.MV stopped-flow apparatus (Applied Photophysics, Salisbury, United Kingdom) or the SFM-20 stopped-flow apparatus (Bio-Logic SAS, Claix, France); the dead time was 1.0 ms.
(§1) Kinetics of peroxynitrite isomerization by Mt-trHbN(III) in the absence and presence of isoniazid was recorded spectrophotometrically at 302 nm (ε302 nm = 1.705×10^3 M^−1 cm^−1) [60]–[67] in the absence and presence of Mt-trHbN(III) (final concentration 2.5×10^−6 – 1.0×10^−5 M) and isoniazid (final concentration 3.0×10^−5 – 4.0×10^−4 M) by rapid mixing the Mt-trHbN(III) or buffer solution with the peroxynitrite solution (final concentration 2.5×10^−4 M).
Kinetics of peroxynitrite isomerization by Mt-trHbN(III) in the absence and presence of isoniazid was analyzed in the framework of the minimum reaction mechanism depicted by Scheme D [60]–[67]: [drawing 11] (D)
Values of the pseudo-first-order rate constant for Mt-trHbN(III)-mediated peroxynitrite isomerization (i.e., l ^obs) were determined in the absence and presence of isoniazid according to Equation 8 [60]–[67]: [drawing 12] (8)
Values of the second-order rate constant for Mt-trHbN(III)-mediated peroxynitrite isomerization (i.e., l on) and of the first-order rate constant for peroxynitrite isomerization in the absence of Mt-trHbN(III) (i.e., l 0) were determined from the linear dependence of l ^obs values on the Mt-trHbN(III) concentration according to Equation 9 [60]–[67]: [drawing 13] (9)
The value of K for isoniazid binding to Mt-trHbN(III) was determined from the dependence of l on the drug concentration (i.e., 3.0×10^−5 M ≤ [isoniazid] ≤4.0×10^−4 M) according to Equation 11 [60]–[67]: [drawing 15] (11) where l on ^app is the value of l on in the presence of isoniazid.

[5] = Peroxynitrite isomerization in the absence of Mt-trHbN(III); details: pH 7.0, 20.0°C
Protocol: as §1
Values of l 0 for peroxynitrite isomerization in the absence of Mt-trHbN(III) were also determined in the absence and presence of isoniazid from the analysis of the time-dependent absorbance decrease at 302 nm according to Equation 10 [60]–[67]: [drawing 14] (10)

Mt-trHbN(II) [6] = molecular target: T1, Mt-trHbN(II); assay type: binding
Mt-trHbN(III) [7] = molecular target: T2, Mt-trHbN(III); test: biochemical; assay type: binding; remark: listed apart in the source
Mt-trHbN(III) [8] = molecular target: T2, Mt-trHbN(III); assay type: biochemical
[9] = isoniazid 1.0×10^−4 M, pH 7.0, 20.0°C
[10] = isoniazid 1.2×10^−4 M, pH 7.0, 20.0°C
[11] = isoniazid 2.0×10^−4 M, pH 7.0, 20.0°C
[12] = isoniazid 2.4×10^−4 M, pH 7.0, 20.0°C
[13] = isoniazid 3.0×10^−5 M, pH 7.0, 20.0°C
[14] = isoniazid 5.0×10^−5 M, pH 7.0, 20.0°C
[15] = isoniazid 6.0×10^−5 M, pH 7.0, 20.0°C
[16] = absence of Mt-trHbN(III), isoniazid and azide
[17] = no Mt-trHbN(III), isoniazid 1.0×10^−2 M, pH 7.0, 20.0°C
[18] = Mt-trHbN(III) 5.0×10^−5 M, isoniazid 1.0×10^−2 M, pH 7.0, 20.0°C

NNC(=O)c1ccncc1 [isoniazid]
Kd (KatG(III); obtained at equilibrium, read-out: K for isoniazid binding to KatG(III)): ~1 µM | k off for isoniazid binding to KatG(III) (KatG(III)): k off = 2.0×10^−2 s^−1 | k on for isoniazid binding to KatG(III) (KatG(III)): k on = 4.8×10^2 M^−1 s^−1 | Kd (KatG(III); read-out: K calculated from kinetic parameters (k off/k on) for KatG(III)): 42 µM | lower affinity for the ferrous form than for the ferric form (Mt-trHbN(II) [1]; Mt-trHbN(II) versus Mt-trHbN(III)): 10 fold | Kd (Mt-trHbN(II) [1]; average of the D values here determined): 1200 µM | Hill coefficient n for isoniazid binding to Mt-trHbN(II) (Mt-trHbN(II) [1]; pH 7.0, 20.0°C): 1.01±0.01 | koff (Mt-trHbN(II) [1]; pH 7.0, 20.0°C, Equation 14, read-out: first-order dissociation rate constant d off): 1.5 s⁻¹ | kon (Mt-trHbN(II) [1]; pH 7.0, 20.0°C, Equation 14, read-out: second-order association rate constant d on): 1300 M⁻¹ s⁻¹ | plasma protein binding (plasma protein): very poor | mode of inhibition of O2 binding to Mt-trHbN(II) (Mt-trHbN(II) [2]): inhibits competitively | mode of inhibition of azide binding to Mt-trHbN(III) (Mt-trHbN(III) [3]; 1.0×10^−3 M ≤ [isoniazid] ≤4.0×10^−3 M): inhibits competitively | Kd (Mt-trHbN(III) [3]; Equation 7, H obs/H ratio versus [isoniazid] 1.0×10^−3 to 4.0×10^−3 M, pH 7.0, 20.0°C): 95 µM | Kd (Mt-trHbN(III) [4]; Equation 11, dependence of l on [isoniazid] 3.0×10^−5 to 4.0×10^−4 M, pH 7.0, 20.0°C, read-out: K for isoniazid binding to Mt-trHbN(III) from inhibition of peroxynitrite isomerization): 130 µM | Mt-trHbN(III) catalysis of peroxynitrite isomerization (Mt-trHbN(III) [4]; [isoniazid] >10×K): does not catalyze the isomerization of peroxynitrite | average l 0 value (l 0 unaffected by isoniazid) (Mt-trHbN(III) [4]; absence and presence of isoniazid, pH 7.0, 20.0°C): 0.28 s⁻¹ | Hill coefficient n for isoniazid binding to Mt-trHbN(III) (Mt-trHbN(III) [4]; from dependence of l on isoniazid concentration): 1.00±0.02 | l 0 for Mt-trHbN(III)-catalyzed peroxynitrite isomerization (y intercept) (Mt-trHbN(III) [4]; [9]): (3.1±0.3)×10^−1 s^−1 | l on app, second-order rate constant for Mt-trHbN(III)-mediated peroxynitrite isomerization (Mt-trHbN(III) [4]; [9]): (3.3±0.3)×10^4 M^−1 s^−1 | l 0 for Mt-trHbN(III)-catalyzed peroxynitrite isomerization (y intercept) (Mt-trHbN(III) [4]; [10]): (2.6±0.3)×10^−1 s^−1 | l on app, second-order rate constant for Mt-trHbN(III)-mediated peroxynitrite isomerization (Mt-trHbN(III) [4]; [10]): (3.2±0.3)×10^4 M^−1 s^−1 | l 0 for Mt-trHbN(III)-catalyzed peroxynitrite isomerization (y intercept) (Mt-trHbN(III) [4]; [11]): (2.5±0.3)×10^−1 s^−1 | l on app, second-order rate constant for Mt-trHbN(III)-mediated peroxynitrite isomerization (Mt-trHbN(III) [4]; [11]): (2.7±0.3)×10^4 M^−1 s^−1 | l 0 for Mt-trHbN(III)-catalyzed peroxynitrite isomerization (y intercept) (Mt-trHbN(III) [4]; [12]): (3.0±0.3)×10^−1 s^−1 | l on app, second-order rate constant for Mt-trHbN(III)-mediated peroxynitrite isomerization (Mt-trHbN(III) [4]; [12]): (2.4±0.3)×10^4 M^−1 s^−1 | l 0 for Mt-trHbN(III)-catalyzed peroxynitrite isomerization (y intercept) (Mt-trHbN(III) [4]; [13]): (2.9±0.3)×10^−1 s^−1 | l on app, second-order rate constant for Mt-trHbN(III)-mediated peroxynitrite isomerization (Mt-trHbN(III) [4]; [13]): (5.1±0.5)×10^4 M^−1 s^−1 | l 0 for Mt-trHbN(III)-catalyzed peroxynitrite isomerization (y intercept) (Mt-trHbN(III) [4]; isoniazid 4.0×10^−4 M, pH 7.0, 20.0°C): (2.5±0.3)×10^−1 s^−1 | l 0 for Mt-trHbN(III)-catalyzed peroxynitrite isomerization (y intercept) (Mt-trHbN(III) [4]; [14]): (2.8±0.3)×10^−1 s^−1 | l on app, second-order rate constant for Mt-trHbN(III)-mediated peroxynitrite isomerization (Mt-trHbN(III) [4]; [14]): (4.4±0.4)×10^4 M^−1 s^−1 | l 0 for Mt-trHbN(III)-catalyzed peroxynitrite isomerization (y intercept) (Mt-trHbN(III) [4]; [15]): (3.0±0.3)×10^−1 s^−1 | l on app, second-order rate constant for Mt-trHbN(III)-mediated peroxynitrite isomerization (Mt-trHbN(III) [4]; [15]): (4.1±0.4)×10^4 M^−1 s^−1 | l 0 for peroxynitrite isomerization in the absence of Mt-trHbN(III) ([5]; isoniazid 1.0×10^−4 M): (3.2±0.3)×10 ^−1 s^−1 | l 0 for peroxynitrite isomerization in the absence of Mt-trHbN(III) ([5]; isoniazid 1.2×10^−4 M): (2.4±0.3)×10 ^−1 s^−1 | l 0 for peroxynitrite isomerization in the absence of Mt-trHbN(III) ([5]; isoniazid 2.0×10^−4 M): (2.6±0.3) ×10 ^−1 s^−1 | l 0 for peroxynitrite isomerization in the absence of Mt-trHbN(III) ([5]; isoniazid 2.4×10^−4 M): (2.9±0.3)×10 ^−1 s^−1 | l 0 for peroxynitrite isomerization in the absence of Mt-trHbN(III) ([5]; isoniazid 3.0×10^−5 M): (2.7±0.3)×10 ^−1 s^−1 | l 0 for peroxynitrite isomerization in the absence of Mt-trHbN(III) ([5]; isoniazid 4.0×10^−4 M): (2.6±0.3)×10 ^−1 s^−1 | l 0 for peroxynitrite isomerization in the absence of Mt-trHbN(III) ([5]; isoniazid 5.0×10^−5 M): (3.0 ±0.3)×10 ^−1 s^−1 | l 0 for peroxynitrite isomerization in the absence of Mt-trHbN(III) ([5]; isoniazid 6.0×10^−5 M): (2.6±0.3)×10 ^−1 s^−1 | average yield of NO2 – [16]: 29% | average yield of NO3 – [16]: 72% | NO2 – [17]: 31±4% | NO3 – [17]: 71±6% | NO3 – + NO2 – [17]: 102% | NO2 – (pH 7): 28±4% | NO3 – (pH 7): 72±5% | NO3 – + NO2 – (pH 7): 100% | effect of isoniazid on CO binding to Mt-trHbN(II) (Mt-trHbN(II) [6]; 5.0×10^−3 M isoniazid): grossly impairs CO binding | phases of CO binding to Mt-trHbN(II) (Mt-trHbN(II) [6]; [isoniazid] ≥1.0×10^−2 M, data not shown): only the slow phase is observed | Hill coefficient n for isoniazid binding to Mt-trHbN(III) (Mt-trHbN(III) [7]; pH 7): 1.01±0.02 | koff (Mt-trHbN(III) [7]; pH 7.0, 20.0°C, Equation 3, read-out: first-order dissociation rate constant k off): 0.46 s⁻¹ | kon (Mt-trHbN(III) [7]; pH 7.0, 20.0°C, Equation 3, read-out: second-order association rate constant k on): 5300 M⁻¹ s⁻¹ | Kd (Mt-trHbN(III) [7]; pH 7.0, 20.0°C, obtained at equilibrium, Equation 1, read-out: dissociation equilibrium constant K for isoniazid binding to Mt-trHbN(III)): 110 µM | Kd (Mt-trHbN(III) [7]; pH 7.0, 20.0°C, read-out: K calculated from kinetic parameters (k off/k on)): 87 µM | average yield of NO2 – (Mt-trHbN(III) [8]): 26% | average yield of NO3 – (Mt-trHbN(III) [8]): 74% | NO2 – (Mt-trHbN(III) [8]; [18]): 25±4% | NO3 – (Mt-trHbN(III) [8]; [18]): 74±8% | NO3 – + NO2 – (Mt-trHbN(III) [8]; [18]): 99% | NO2 – (Mt-trHbN(III) [8]; pH 7): 26±4% | NO3 – (Mt-trHbN(III) [8]; pH 7): 75±8% | NO3 – + NO2 – (Mt-trHbN(III) [8]; pH 7): 101%

Source: PMC3731299, “Isoniazid Inhibits the Heme-Based Reactivity of Mycobacterium tuberculosis Truncated Hemoglobin N” (PLoS ONE, 2013)
